Tests used:
[1] = tested on: diabetic/hypercholesterolemic pig model (DM/HC); assay: MicroCT analysis of trabecular bone (medial femoral condyle) in the DM/HC pig model; type: in vivo; details: for SMI (structural model index) / Tb.Th (trabecular thickness): 10 mg/kg/day
Method: Animal model: A diabetic/diabetic hypercholestrolemic pig model (DM/HC) was developed that mimics human-like atherosclerosis. Domestic Yorkshire boars weighing 25-30 kg and aged ˜4 months were castrated and made diabetic with a single intravenous injection of 125 mg/kg of streptozotocin (Sicor Pharmaceuticals, Irvine, Calif.). […] The animals were sacrificed at 6-month after the randomization. The animal protocol has been approved by the Institutional Animal Care and Use Committee of University of Pennsylvania. Daily dosing began on Day 29, at which time each test animal was given a daily dose of 10 mg/kg SB-480848 (given as bolus equivalent in dog food). Animals were NPO from midnight the night before. Animals were euthanized on Day 196 and tissues harvested immediately. Tissue sampling: The right knee joint was removed and dissected. The femoral bone was split in half in parallel to the long axis of the bone. A piece of bone including both the articular surface and growth plate region (˜15-20 mm) was sliced off from the front and parallel to the femoral shaft (FIG. 1). The tissues were fixed in 4% paraformaldehyde and scanned within one week in a μCT scanner (μCT-40, Scanco Corp.) with a voxel resolution of 20 μm. MicroCT Analysis—Micro CT analysis generates 3 dimensional data including bone density and indices of micro-architecture. From the central region, i.e., between the articular surface (top) and the growth plate (bottom), 250 slices (˜[…]) were analyzed. To avoid artifact, the measurements were contoured away from the regions directly below the articular surface and the cutting edges. Paraformaldehyde fixed tissues (2×2 cm) were analyzed using microCT 40 (Scanco Medical, Bassersdorf, Switzerland) and a 3D reconstruction of the images slices was generated. The tissues were scanned at a medium resolution with slice thickness and slice increments of 20 μm. […] Scanning was performed at an energy setting of 70000 (V) and an intensity of 114 (μA) with an integration time of 200 ms. All values for tissue volume (mm3), bone volume (mm3), bone volume/tissue volume, and mean/density (mg HA/ccm) were also calculated and recorded. […] The image density was measured with the Distance3D tool of the μCT Evaluation Program V5.0.

[2] = Body weight and general observation of DM/HC pigs during the study; type: in vivo, pig
Method: (§1) Animal model: A diabetic/diabetic hypercholestrolemic pig model (DM/HC) was developed that mimics human-like atherosclerosis. Domestic Yorkshire boars weighing 25-30 kg and aged ˜4 months were castrated and made diabetic with a single intravenous injection of 125 mg/kg of streptozotocin (Sicor Pharmaceuticals, Irvine, Calif.). After stabilized for 1-2 weeks, the animals with elevated levels of plasma glucose (>150 mg/dl) were fed with atherogenic (high-fat) diet as shown in Table 1 (Animal Specialties, Quakertown, Pa.) to achieve a cholesterol level of approximately 250-800 mg/dl.
(§2) At one month after stabilization of choleresterol at 250-800 mg/dl, the animals were randomized into two experimental groups, DM/HC (hyperglycemia and hypercholesterolemia) group with no treatment and treatment group (10 mg/kg/day of SB-480848, also referred to as 1-(N-(2-(diethylamino)ethyl)-N-(4-(4-trifluoromethylphenyl)benzyl)-aminocarbonylmethyl)-2-(4-fluorobenzyl)thio-5,6-trimethylenepyrimidin-4-one). The animals were sacrificed at 6-month after the randomization. The animal protocol has been approved by the Institutional Animal Care and Use Committee of University of Pennsylvania.
(§3) Daily dosing began on Day 29, at which time each test animal was given a daily dose of 10 mg/kg SB-480848 (given as bolus equivalent in dog food). Animals were NPO from midnight the night before. […]

[3] = tested on: diabetic/hypercholesterolemic pig model (DM/HC); assay: Histochemical staining (H&E-AB) of bone marrow in DM/HC pigs; type: in vivo; details: treated vs non-treated DM/HC pigs
Method: as §1, §2, §3

[4] = tested on: diabetic/hypercholesterolemic pig model (DM/HC); assay: TUNEL assay of trabecular bone in DM/HC pigs; type: in vivo; details: treated vs non-treated DM/HC pigs, n=4 per group
Method: as §1, §2
Daily dosing began on Day 29, at which time each test animal was given a daily dose of 10 mg/kg SB-480848 (given as bolus equivalent in dog food). […]
TUNEL Assay. Apoptosis was measured by the TUNEL assay. […]

MLO-A5 cells = assay: CyQUANT cell proliferation assay in MLO-A5 cells; type: cell-based, mice; details: 5 μM LysoPC, 18 hours, vs non-treated cells
Method: Cell Proliferation. MLO-A5 cells were plated in 48-well TC dishes at a density of 5,000 cells/well and allowed to attach (5-6 hrs.). The cells were treated with 5 uM of Lyso PC for 18 hrs followed by analysis with the CyQUANT Cell Proliferation Assay Kit (Molecular Probes) following manufacturers instructions to measure MLO-A5 proliferation.

[5] = tested on: MLO-A5 osteoblastic cells; assay: Alizarin Red staining (mineralization) of MLO-A5 cells; type: cell-based, mice; details: 5 μM LysoPC, 7 days, vs non-treated control cells
Method: (§4) Alkaline Phosphatase and Alizarin Red Staining. Alizarin Red and Alkaline Phosphatase Staining are bone marker proteins indicating the degree of mineralization and intensity of osteblast differentiation, respectively. MLO-A5 osteoblastic cells (isolated from 14-day-old osteocalcin promoter-driven T-antigen transgenic mice, J Bone Miner Res 12:2014-2023, 1997) were cultured on Collagen1 coated plates at density 15000 cells/well in 12-well TC plates. After 24 hours, the cells were treated w/10 mM β-GP and LysoPC at 5 μM concentration for 3 and 7 days. Treatment was repeated every other day. At each time point alizarin red and alkaline phosphatase staining was performed. Alkaline phosphatase Detection Kit (Chemicon, Intl., Temecula, Calif., SCR004) was used for detection and performed as per manufactures instructions. To visualize mineralization the cells were washed once with a 2% Alizarin Red S solution for 5-10 min. at room temperature followed by one wash with water, two washes with PBS and fixation with paraformaldehyde. The results were then imaged with a digital cooled CCD camera.

[6] = tested on: MLO-A5 osteoblastic cells; assay: Alkaline phosphatase staining (osteoblast differentiation) of MLO-A5 cells; type: cell-based, mice; details: vs control
Method: as §4

[7] = DM/HC pigs, 10 mg/kg/day SB-480848, sacrificed Day 196
[8] = DM/HC pigs, 10 mg/kg/day SB-480848, sacrificed Day 196, listed as Lp-PLA2 inhibitor

Molecule | osteoporotic changes (BV/TV, BS/BV) ([1]; DM/HC pigs treated with inhibitor, in words) | BS/BV (bone surface over bone volume) [1, 7] | BV/TV (bone volume over total volume) [1, 7] | Conn-Dens (connectivity density) [1, 7] | Tb.N (trabecular number) [1, 7] | Tb.Sp (trabecular separation) [1, 7] | SMI (structural model index) [1, 7] | Tb.Th (trabecular thickness) [1, 7] | SMI (structural model index) [1, 8] | Tb.Th (trabecular thickness) [1, 8] | changes in Tb.Sp, TbN and ConnD ([1]; control vs DM/HC vs treated DM/HC animals, in words) | weight ([2]; treated DM/HC pigs at end of study, baseline 26.9 kg, control animals 50.9 kg) [kg] | responsiveness and activity of the animals ([2]; treated vs control DM/HC pigs, observation) | trabecular bone marrow morphology / homeostasis ([3]; H&E-AB staining, trabecular bone areas) | bone marrow remote from trabecular bone [3] | death of osteocytes and osteoblasts (TUNEL positive cells) [4] | proliferation (MLO-A5 cells) | mineralization (Alizarin Red staining) [5] | alkaline phosphatase staining ([6]; 5 μM LysoPC, 7 day treatment) | alkaline phosphatase staining ([6]; at least 5 μM LysoPC (5 and 20 μM), 7 days)
CCN(CC)CCN(Cc1ccc(-c2ccc(C(F)(F)F)cc2)cc1)C(=O)Cn1c(SCc2ccc(F)cc2)nc(=O)c2c1CCC2 [SB480848, 1-(N-(2-(diethylamino)ethyl)-N-(4-(4-trifluoromethylphenyl)benzyl)-aminocarbonylmethyl)-2-(4-fluorobenzyl)thio-5,6-trimethylenepyrimidin-4-one] | no osteoporotic changes | 24.40 ± 0.51 | 0.25 ± 0.01 | 35.69 ± 1.22 | 2.78 ± 0.06 | 0.33 ± 0.007 | 0.65 ± 0.10 | 0.10 ± 0.002 | degenerative changes were minimized | reduced Tb.Th thickness was prevented | no significant changes | 62.5 | more responsive to external stimuli | preserved bone marrow homeostasis | prevented DM/HC-induced bone marrow abnormalities | reduced death of osteocytes and osteoblasts |  |  |  | 
lyso-phosphatidylcholine [LysoPC] |  |  |  |  |  |  |  |  |  |  |  |  |  |  |  |  | reduced proliferation | decreased mineralization | decreased alkaline phosphatase staining | reduced alkaline phosphatase staining
